Series [1] is described as follows: Complexation ability of cyclodextrins with chlorantraniliprole. The class given is physicochemical.
A short description of series [2]: Phase solubility isotherms of folpet-cyclodextrin complexes. In kind it is physicochemical. The note with it: with folpet. On the procedure: The weight ratio of folpet to cyclodextrin was approximately 1:2. The content of folpet in the complex was determined by HPLC. Phase solubility isotherms were carried out for the folpet-cyclodextrin complexes.

As for `OC[C@H]1O[C@@H]2O[C@H]3[C@H](O)[C@@H](O)[C@@H](O[C@H]4[C@H](O)[C@@H](O)[C@@H](O[C@H]5[C@H](O)[C@@H](O)[C@@H](O[C@H]6[C@H](O)[C@@H](O)[C@@H](O[C@H]7[C@H](O)[C@@H](O)[C@@H](O[C@H]1[C@H](O)[C@H]2O)O[C@@H]7CO)O[C@@H]6CO)O[C@@H]5CO)O[C@@H]4CO)O[C@@H]3CO` [Alpha-cyclodextrin, alpha cyclodextrin], the complexation ability entry in series [1] was “highest complexation ability”.
On to “methyl-beta-cyclodextrin [RAMEB cyclodextrin]”, for which the complexation ability entry in series [2] is recorded as “highest complexation ability”.

Values taken from patent US12727599B2, “Use of cyclodextrins as agrochemical delivery system” (priority 2018, dated 2026).
